Assay results as given in the NIST ThermoML archive (doi:10.1021/je900732r).

Assay: mn = molality of the nth substance listed, in mol/kg
Conditions: 101 kPa, Liquid

C[S+](C)[O-] [dimethyl sulfoxide] + [Mn+2].[O-][Cl+3]([O-])([O-])[O-].[O-][Cl+3]([O-])([O-])[O-]
m2 = 0
Conditions	mass density [kg/m3]
293.15 K	1100.22
298.15 K	1095.19
303.15 K	1090.17
313.15 K	1080.12
323.15 K	1070.08
333.15 K	1060.04

CO [methanol] + [Ni+2].[O-][Cl+3]([O-])([O-])[O-].[O-][Cl+3]([O-])([O-])[O-]
m2 = 0
Conditions	mass density [kg/m3]
283.15 K	800.541
288.15 K	795.866
293.15 K	791.169
298.15 K	786.46
303.15 K	781.733
308.15 K	776.979
313.15 K	772.189

C[S+](C)[O-] [dimethyl sulfoxide] + [Co+2].[O-][Cl+3]([O-])([O-])[O-].[O-][Cl+3]([O-])([O-])[O-]
m2 = 0
Conditions	mass density [kg/m3]
293.15 K	1100.22
298.15 K	1095.19
303.15 K	1090.18
313.15 K	1080.12
323.15 K	1070.08
333.15 K	1060.03

CO [methanol] + O=S(=O)([O-])C(F)(F)F.O=S(=O)([O-])C(F)(F)F.[Cu+2]
m2 = 0
Conditions	mass density [kg/m3]
283.15 K	800.548
288.15 K	795.857
293.15 K	791.162
298.15 K	786.452
303.15 K	781.722
308.15 K	776.978
313.15 K	772.2

C[S+](C)[O-] [dimethyl sulfoxide] + [Ni+2].[O-][Cl+3]([O-])([O-])[O-].[O-][Cl+3]([O-])([O-])[O-]
m2 = 0
Conditions	mass density [kg/m3]
293.15 K	1100.22
298.15 K	1095.19
303.15 K	1090.17
313.15 K	1080.12
323.15 K	1070.08
333.15 K	1060.04

[Co+2].[O-][Cl+3]([O-])([O-])[O-].[O-][Cl+3]([O-])([O-])[O-] [cobalt(II) perchlorate] + C[S+](C)[O-]
mass density [kg/m3]
Conditions	293.15 K	298.15 K	303.15 K	313.15 K	323.15 K	333.15 K
m1 = 0.01481	1103.37	1098.35	1093.34	1083.31	1073.29	1063.26
m1 = 0.0215	1104.79	1099.78	1094.77	1084.75	1074.74	1064.73
m1 = 0.03236	1107.1	1102.1	1097.1	1087.09	1077.1	1067.1
m1 = 0.04309	1109.4	1104.4	1099.41	1089.42	1079.44	1069.46
m1 = 0.05528	1112.02	1107.03	1102.04	1092.06	1082.1	1072.14
m1 = 0.06505	1114.13	1109.14	1104.15	1094.2	1084.25	1074.3
m1 = 0.08726	1118.94	1113.97	1109	1099.07	1089.15	1079.22
m1 = 0.1069	1123.24	1118.27	1113.31	1103.39	1093.51	1083.61
m1 = 0.1285	1127.98	1123.03	1118.08	1108.19	1098.33	1088.47
m1 = 0.148	1132.32	1127.38	1122.44	1112.57	1102.73	1092.9
m1 = 0.1695	1137.12	1132.18	1127.26	1117.42	1107.6	1097.8
m1 = 0.1911	1141.97	1137.05	1132.14	1122.33	1112.53	1102.76
m1 = 0.2111	1146.48	1141.57	1136.67	1126.88	1117.12	1107.38

CO [methanol] + [Co+2].[O-][Cl+3]([O-])([O-])[O-].[O-][Cl+3]([O-])([O-])[O-]
m2 = 0
Conditions	mass density [kg/m3]
283.15 K	800.55
288.15 K	795.872
293.15 K	791.172
298.15 K	786.464
303.15 K	781.742
308.15 K	776.992
313.15 K	772.214

[Ni+2].[O-][Cl+3]([O-])([O-])[O-].[O-][Cl+3]([O-])([O-])[O-] [nickel perchlorate] + C[S+](C)[O-]
mass density [kg/m3]
Conditions	293.15 K	298.15 K	303.15 K	313.15 K	323.15 K	333.15 K
m1 = 0.01259	1102.91	1097.89	1092.88	1082.85	1072.82	1062.8
m1 = 0.01738	1103.94	1098.92	1093.91	1083.88	1073.87	1063.85
m1 = 0.02515	1105.61	1100.6	1095.59	1085.57	1075.56	1065.56
m1 = 0.03153	1106.98	1101.97	1096.96	1086.96	1076.96	1066.96
m1 = 0.03816	1108.41	1103.4	1098.4	1088.4	1078.41	1068.42
m1 = 0.051	1111.18	1106.18	1101.18	1091.2	1081.23	1071.27
m1 = 0.06341	1113.88	1108.88	1103.89	1093.92	1083.97	1074.01
m1 = 0.07675	1116.78	1111.79	1106.81	1096.86	1086.92	1076.99
m1 = 0.08797	1119.23	1114.24	1109.27	1099.34	1089.42	1079.5
m1 = 0.1004	1121.96	1116.98	1112.02	1102.1	1092.19	1082.3
m1 = 0.1126	1124.63	1119.67	1114.7	1104.8	1094.91	1085.03
m1 = 0.1251	1127.4	1122.43	1117.49	1107.6	1097.73	1087.86

C[S+](C)[O-] [dimethyl sulfoxide] + [O-][Cl+3]([O-])([O-])[O-].[O-][Cl+3]([O-])([O-])[O-].[Zn+2]
m2 = 0
Conditions	mass density [kg/m3]
293.15 K	1100.23
298.15 K	1095.2
303.15 K	1090.18
313.15 K	1080.12
323.15 K	1070.08
333.15 K	1060.04

[Mn+2].[O-][Cl+3]([O-])([O-])[O-].[O-][Cl+3]([O-])([O-])[O-] [manganese (II) perchlorate] + C[S+](C)[O-]
mass density [kg/m3]
Conditions	293.15 K	298.15 K	303.15 K	313.15 K	323.15 K	333.15 K
m1 = 0.01626	1103.52	1098.5	1093.49	1083.46	1073.44	1063.42
m1 = 0.0211	1104.5	1099.48	1094.47	1084.45	1074.44	1064.43
m1 = 0.02843	1105.99	1100.98	1095.97	1085.96	1075.96	1065.96
m1 = 0.037	1107.74	1102.73	1097.73	1087.73	1077.74	1067.75
m1 = 0.04758	1109.9	1104.9	1099.91	1089.92	1079.94	1069.97
m1 = 0.05763	1111.96	1106.97	1101.98	1092.01	1082.05	1072.09
m1 = 0.07358	1115.24	1110.26	1105.28	1095.33	1085.39	1075.45
m1 = 0.09456	1119.59	1114.62	1109.65	1099.73	1089.82	1079.91
m1 = 0.1139	1123.62	1118.65	1113.7	1103.8	1093.92	1084.04
m1 = 0.1337	1127.77	1122.82	1117.87	1108	1098.14	1088.29
m1 = 0.1569	1132.59	1127.65	1122.73	1112.88	1103.06	1093.24
m1 = 0.1754	1136.6	1131.67	1126.75	1116.94	1107.13	1097.34

C[S+](C)[O-] [dimethyl sulfoxide] + [Cu+2].[O-][Cl+3]([O-])([O-])[O-].[O-][Cl+3]([O-])([O-])[O-]
m2 = 0
Conditions	mass density [kg/m3]
293.15 K	1100.23
298.15 K	1095.2
303.15 K	1090.18
313.15 K	1080.12
323.15 K	1070.08
333.15 K	1060.04

[O-][Cl+3]([O-])([O-])[O-].[O-][Cl+3]([O-])([O-])[O-].[Zn+2] [zinc perchlorate] + C[S+](C)[O-]
mass density [kg/m3]
Conditions	293.15 K	298.15 K	303.15 K	313.15 K	323.15 K	333.15 K
m1 = 0.0168	1103.88	1098.86	1093.85	1083.82	1073.81	1063.78
m1 = 0.02409	1105.47	1100.46	1095.45	1085.43	1075.43	1065.41
m1 = 0.02918	1106.59	1101.58	1096.56	1086.56	1076.56	1066.55
m1 = 0.03465	1107.79	1102.78	1097.78	1087.77	1077.77	1067.77
m1 = 0.05104	1111.38	1106.39	1101.39	1091.4	1081.43	1071.45
m1 = 0.06794	1115.12	1110.13	1105.14	1095.18	1085.22	1075.26
m1 = 0.08574	1119.08	1114.1	1109.12	1099.17	1089.23	1079.3
m1 = 0.1022	1122.78	1117.8	1112.83	1102.91	1092.99	1083.08
m1 = 0.119	1126.55	1121.58	1116.62	1106.7	1096.8	1086.9
m1 = 0.1435	1132.09	1127.14	1122.19	1112.3	1102.43	1092.57
m1 = 0.1684	1137.8	1132.85	1127.91	1118.05	1108.21	1098.37
